test system: α- and β-secretase cleavage of APP; experiment: Western blot of intracellular APP-C99 and APP-C83 in rat primary neurons exposed to NMDAR modulators; format: cell-based; conditions: 15 DIV, compared to the untreated control, NMDA, D-serine 30µM for 3 minutes, memantine 30µM for 16 hours, DAPT 1 µM for 16 hours
Protocol: Neuronal cultures and treatments. Cortical and hippocampal neurons were cultured as described^27 from postnatal day 0 rats or mice and all treatments described bellow carried out at 15 days in vitro (DIV). Stimulations with 30µM N-methyl-D-aspartate (NMDA, Tocris), 30µM D-serine (the D isoform of the amino acid serine, Sigma), or a combination of NMDA + D-serine (30µM each) were carried out for 3 minutes and neurons transferred into trophically enriched medium and further incubated for 16 hours. Treatments with 30µM 1-amino-3,5-dimethyladamantane (memantine, Lucerna-Chem), 1 µM N-[N-(3,5-difluorophenacetyl)-L-alanyl]-S-phenylgly cine t-butyl ester (DAPT, ), and 1 µM phorbol 12-myristate 13-acetate (PMA, Sigma) were carried out for 16 hours. Pre-treatments with 1 µM TAPI-1 (Calbiochem), 1 µM GL189 (Calbiochem), 1,2-bis(o-aminophenoxy)ethane-N,N,N',N'-tetraacetic acid (BAPTA, Sigma), H-89, chelerythrine, or KN-62 (Biaffin GmbH & Co KG) were carried out for 1 hour. Next, neurons were treated (or not) with NMDA or NMDA + D-serine as described above, and cells transferred into trophically enriched medium and incubated for additional 15 hours. Whole cell lysates were prepared for Western blot analysis as described below.
Western blotting and antibodies. Cells were washed with cold phosphate-bufferd saline containing 2 mM EDTA and homogenized in 50 mM Tris-HCL pH 7.4, 350 mM NaCl, 100 mM DTT, 0.1% SDS, 0.5% NP-40 and a cocktail of protease inhibitors (Roche Diagnostics). Protein whole cell extracts were separated on 4-12% Bis-tris gels (Invitrogen) and transferred onto nitrocellulose membranes to detect APP-FL, APP-C99, APP-C83 and AICD (CT15, Sigma), sAPPα (6E10, Signet), Notch-FL and NICD (Sigma), ADAM10 (Calbiochem), ADAM17 (Calbiochem), BACE1 (EE17, Sigma), NCT (NCT164, BD Bioscience), PS1-FL and PS1-NTF (MAB1536, Chemicon International), Pen-2 (UD-1, 1:500, a gift of Helena Karlström), and β-Action (Sigma).

SMILES | intracellular accumulation of APP-C99 and APP-C83
N[C@H](CO)C(=O)O [D-serine] | did not affect the production of APP-C99/APP-C83
CC12CC3CC(C)(C1)CC(N)(C3)C2 [memantine, 1-amino-3,5-dimethyladamantane] | triggered the accumulation of APP-C83
C[C@H](NC(=O)Cc1cc(F)cc(F)c1)C(=O)N[C@H](C(=O)OC(C)(C)C)c1ccccc1 [DAPT, N-[N-(3,5-difluorophenacetyl)-L-alanyl]-S-phenylglycine t-butyl ester] | increased levels of both APP-C83 and APP-C99
